Assay results published in US11304944B2, “MetAP2 inhibitors and methods of treating obesity” (SynDevRx, Inc., priority 2013, dated 2022).
Where a name gives a salt, the structure may show the parent alone.

What was measured:
[1] = system: DIO C57Bl6 mice; assay: Efficacy of various compounds in DIO mouse model (body weight versus time); format: in vivo; settings: 2 mg/kg q4d sc
Method: On study day 1 animals were randomized into groups so that the average weight of the mice in each group was 47 g. The mice were treated with either phosphate buffered saline (vehicle), or compounds as listed in Table 19 dissolved in vehicle (dorsal, subcutaneous administration).

[2] = system: DIO Levin rats; assay: In vivo testing DIO Levin rats: weight changes, food consumption, insulin, leptin levels
Method: CKD-732 as referred to herein is the hemitartrate salt of the following structure:
Test articles were administered subcutaneously on an every 4 day (q4d) schedule in a diet-induced obesity (DIO) Levin-DS rat model. […] A dietary intervention (Standard Chow, Labdiet 5001; 3.4 kcal/g) was included to compare to the drug interventions. Upon arrival at three weeks of age, the male rats received ad libitum pellets of Harlan Diet TD.06414, 60% of calories from fat, 21% of calories from carbohydrate; 5.1 kcal/g. Prior to dosing the rats were randomized into groups of three animals with an average body weight of 595 gm. […] Compound 1 in the form of the hemitartrate and CKD-732 in the form of the hemitartrate were dissolved in ethanol prior to dilution with vehicle. All doses were administered at a volume of 5.0 ml/kg. […] On day 1, first dose, the rats were 14 weeks of age. Also on day 1, Group 2 was switched from the high fat diet to a standard chow diet; the remaining groups were maintained on a high fat diet for the duration of the study.
(§1) Animals were weighed every other day. Food consumption was measured weekly. On an approximately weekly basis throughout the study, blood samples were taken for assessment of serum chemistries including glucose and insulin. On Day 48 all rats underwent a 4 hour fasted Oral Glucose Tolerance Test (OGTT). Animals were dosed orally (per os, PO) at 8 mL/kg 25% glucose (2 g/kg). On day 68, gross pathology was performed to determine body composition.

[3] = system: DIO Levin rats; assay: Oral Glucose Tolerance Test (OGTT) Day 48 and HOMA-ir in DIO Levin rats; format: in vivo; settings: 1.15 mg/kg q4d sc;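 for Blood Glucose pre-OGTT: blood glucose in mg/dL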;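 for Blood Glucose, Time 120: blood glucose in mg/dL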;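 for Blood Glucose, Time 15: blood glucose in mg/dL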;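 for Blood Glucose, Time 30: blood glucose in mg/dL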;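 for Blood Glucose, Time 60: blood glucose in mg/dL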;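 for Blood Glucose, Time 90: blood glucose in mg/dL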
Method: as §1

[4] = system: DIO C57Bl/6 mice; assay: In vivo testing DIO mice schedule-dose response: weight, food intake, ipGTT, HOMA-ir data
Method: Animals were dosed according to the schedule in Table 17 below.
Compound dosing occurred between 9 and 10 am on the day of dosing. Groups 6 and 7 received a total of 17 doses. The q4d groups (1, 2, 3, 4, 8, 9) received a total of 9 doses. The q8d group (5) received a total of 5 drug doses. Body weight and food intake were measured every other day. Blood glucose was measured on Day −7, Day 0, Day 7, Day 14, Day 21 and Day 28 at 9:00 am in fed state (BG measured before dose on dosing days). BG was measured by glucometer. An intraperitoneal glucose tolerance test (ipGTT, 6 h fasting) was performed.
The study was terminated on day 34. Liver and epididymal white adipose tissues (eWAT) were harvested, weighed and stored at −80° C. Sera was collected to determine: AST, ALT, ALP, CK, BUN, creatinine, calcium, potassium, sodium, chloride, total protein, albumin, total bilirubin, glucose, triglyceride and cholesterol. Insulin samples were measured using a commercial kit.

[5] = every fourth day schedule; due to confusion and insomnia; cited from earlier work

## poly[HPMA-co-MA-GFLG-N-(cis-4-aminocyclohexyl)carbamoylfumagillol] [Compound cis-16]
[1]
  Group Avg. BW, Study Day 1: 47.0 g
  Group Avg. BW, Study Day 7: 42.7 g
  Group Avg. BW, Study Day 15: 42.6 g
  Group Avg. BW, Study Day 21: 40.9 g
  Group Avg. BW, Study Day 26: 40.6 g
[1]; day 26
  BW change vs. vehicle: −12.0%

## COC1C(OC(=O)/C=C/c2ccc(OCCN(C)C)cc2)CC[C@]2(CO2)C1[C@@]1(C)O[C@@H]1CC=C(C)C (some centres unmarked) [CKD-732, reference compound]
[2]; 1.15 mg/kg Q4D
  lower body weight than vehicle: 3.2%
[2]; 1.15 mg/kg q4d sc
  Avg. Insulin Day 7: 2.08 ng/mL
  Avg. Insulin Day 15: 1.91 ng/mL
  Avg. Insulin Day 23: 1.60 ng/mL
  Avg. Insulin Day 48: 1.56 ng/mL
  Avg. Insulin Pre-dosing: 2.58 ng/mL
  Group Average Food Consumption Day 1-8: 131.8 g
  Group Average Food Consumption Day 9-15: 110.5 g
  Group Average Food Consumption Day 16-23: 108.7 g
  Group Average Food Consumption Day 24-30: 133.9 g
  Group Average Food Consumption Day 31-36: 153.9 g
  Group Average Food Consumption Day 37-43: 148.7 g
  Group Average Food Consumption Day 44-50: 112.3 g
  Group Average Food Consumption Day 51-57: 135.0 g
  Group Average Food Consumption Day 58-63: 125.5 g
  Group Average Food Consumption Day 63-68: 61.9 g
  Leptin Levels Day 29: 4.30
  Leptin Levels Pre-dose: 4.43
  Leptin Levels, Day 29, % Change from Baseline: −3.0%
[2]; 1.15 mg/kg q4d sc, after 68 days, 60% fat diet
  Final BW: 714.0 g
[3]
  Blood Glucose pre-OGTT: 123 mg/dL
  HOMA-ir (Insulin Sensitivity) 15 min: 49.0
  HOMA-ir (Insulin Sensitivity) 30 min: 35.9
  HOMA-ir (Insulin Sensitivity) Pre-dose: 13.6
[3]; OGTT
  Blood Glucose, Time 15: 174 mg/dL
  Blood Glucose, Time 30: 171 mg/dL
  Blood Glucose, Time 60: 158 mg/dL
  Blood Glucose, Time 90: 153 mg/dL
  Blood Glucose, Time 120: 144 mg/dL
[3]; at OGTT
  BW: 686 g
[4]; 1 mg/kg Q2D
  Glucose, ipGTT 0 min: 161.3 mg/dL
  Glucose, ipGTT 15 min: 469.2 mg/dL
  Insulin, ipGTT 0 min: 54.8 uU/ml
  Insulin, ipGTT 15 min: 89.3 uU/ml
[4]; 2 mg/kg q4d
  Glucose, ipGTT 0 min: 182.6 mg/dL
  Glucose, ipGTT 15 min: 498.6 mg/dL
  Insulin, ipGTT 0 min: 99.8 uU/ml
  Insulin, ipGTT 15 min: 118.3 uU/ml
[4]; Q2D (QOD) schedule versus Q4D, FIG. 20
  response (weight loss) by schedule: better response than the same average daily dose administered on a Q4D schedule
[5]
  MTD: 15 mg/m2/day

## COC1C(OC(=O)N[C@H]2CC[C@H](N)CC2)CC[C@]2(CO2)C1[C@@]1(C)O[C@@H]1CC=C(C)C (stereo partly drawn) (as salt: tartrate) [Compound 1, Fumagill-6-yl [trans-(4-aminocyclohexyl)]carbamate]
other
  melting point: 180 to 185 °C
